Data reported in article PMC5228208 (MedChemComm, 2016).

Tests used:
[1] = tested on: HIV; details: natural products; reported previously, ref [10a]; cited from earlier work
[2] = tested on: HIV RT RNaseH; type: binding, HIV-1; details: natural product

Compound | Cell-Based Assays Antiviral EC50 [1] | HIV RT RNaseH Assays ThermoFluor ΔTm [2] [°C]
manicol | n.p. (‘n.p.’ indicates no protective effects (<35% cell viability throughout assay)) | –
CC(C)c1ccc(O)c(=O)c(O)c1 [β-thujaplicinol] | n.p. (‘n.p.’ indicates no protective effects (<35% cell viability throughout assay)) | 2.34
